Reference: US5206229A, “Vitamin D analogues” (Leo Pharmaceutical Products LTD, priority 1988, dated 1993)
Blank lines part the entries; values can stand above or below the molecule they belong to.

How the values were obtained:
cell proliferation [1] = details: cited from earlier work
differentiation of cells = details: cited from earlier work
[2] = in vivo; cited from earlier work
interleukins = details: cited from earlier work
HL-60 cells = details: in vitro; more potent than 1,25(OH)2 D3; cited from earlier work
[3] = test system: receptor in a human myeloid leukemia cell line (HL-60); details: compared with 1,25(OH)2 D3; cited from earlier work
[4] = in vivo; compared with 1,25(OH)2 D3; cited from earlier work
rat intestinal receptor = details: compared with 1,25(OH)2 D3; cited from earlier work
[5] = test system: chicken intestinal receptor; details: compared with 1,25(OH)2 D3; cited from earlier work
[6] = in vivo; cited from earlier work; remark: listed apart in the source
cell differentiation [7] = details: more potent than 1,25(OH)2 D3; cited from earlier work
[8] = test system: human monocytic tumour cell line; test: inhibition of proliferation of tumour cells; assay type: cell-based; details: compared with 1,25(OH)2 D3
[9] = calcium metabolism in rats (hypercalciuria, hypercalcemia)
[10] = test system: human monocytic tumour cell line; test: induction of cell differentiation in a human monocytic tumour cell line; assay type: cell-based; details: compared with 1,25(OH)2 D3
[11] = test system: intestinal vitamin D receptor; details: in vitro; compared with 1,25(OH)2 D3; cited from earlier work
[12] = cited from earlier work
cell proliferation [13] = details: cited from earlier work; remark: listed apart in the source
cell differentiation [14] = details: cited from earlier work

Compound: C=C1/C(=C\C=C2/CCC[C@]3(C)[C@@H]([C@H](C)CCCC(C)(C)O)CC[C@@H]23)C[C@@H](O)C[C@@H]1O [1,25(OH)2 D3, 1α,25-dihydroxy-vitamin D3]
- inhibition of excessive cell proliferation (cell proliferation [1]): inhibit excessive cell proliferation
- stimulation of differentiation of cells (differentiation of cells): able to stimulate the differentiation of cells
- effect on calcium metabolism [2]: well known potent effect
- effect on interleukins (interleukins): influences the effects and/or production of interleukins

Compound: C=C1/C(=C\C=C2/CCC[C@]3(C)[C@@H]([C@H](C)CCCCC(C)(C)O)CC[C@@H]23)C[C@@H](O)C[C@@H]1O [24-Homo-1,25-dihydroxyvitamin D3]
- potency in inducing differentiation of HL-60 cells relative to 1,25(OH)2 D3 (HL-60 cells): 10 fold
- binding affinity to the receptor in HL-60 [3]: the same binding affinity as 1,25(OH)2 D3
- potency in calcium metabolism assessments [4]: significantly less potent
- binding affinity to the rat intestinal receptor (rat intestinal receptor): the same binding affinity as 1,25(OH)2 D3
- binding affinity to the chicken intestinal receptor [5]: the same binding affinity as 1,25(OH)2 D3

Compound: C=C1/C(=C\C=C2/CCC[C@]3(C)[C@@H]([C@H](C)CCCC(O)(CCC)CCC)CC[C@@H]23)C[C@@H](O)C[C@@H]1O [26,27-diethyl-1α,25-dihydroxyvitamin D3]
- vitamin D activity (calcium metabolism effects) [6]: almost no vitamin D activity
- potency in inducing cell differentiation relative to 1,25(OH)2 D3 (cell differentiation [7]): 10 fold

Compound: C=C1/C(=C\C=C2/CCC[C@]3(C)[C@@H]([C@H](C)CCCC(C)(O)CC)CC[C@@H]23)C[C@@H](O)C[C@@H]1O (some centres unmarked) [26-homo-1,25-dihydroxyvitamin D3]
- potency in inducing differentiation of HL-60 cells relative to 1,25(OH)2 D3 (HL-60 cells): 10 fold
- binding affinity to the receptor in HL-60 [3]: the same binding affinity as 1,25(OH)2 D3
- potency in calcium metabolism assessments [4]: more potent
- binding affinity to the rat intestinal receptor (rat intestinal receptor): the same binding affinity as 1,25(OH)2 D3
- binding affinity to the chicken intestinal receptor [5]: the same binding affinity as 1,25(OH)2 D3

- in vivo potency on calcium metabolism [9]: lower in vivo potency
Compound: C=C1/C(=C\C=C2/CCC[C@]3(C)[C@@H]([C@H](C)CCCCCC(C)(C)O)CC[C@@H]23)C[C@@H](O)C[C@@H]1O [Compound 36, 1(S),3(R)-Dihydroxy-20(R)-(6-hydroxy-6-methyl-1-heptyl)-9,10-secopregna-5(Z),7(E),10(19)-triene]
- concentration effective in inhibiting proliferation [8]: the same low concentrations as 1,25(OH)2 D3
- concentration needed to induce cell differentiation [10]: the same low concentrations as 1,25(OH)2 D3

- in vivo potency on calcium metabolism [9]: lower in vivo potency
Compound: C=C1/C(=C\C=C2/CCC[C@]3(C)[C@@H]([C@H](C)CCCCCCC(C)(C)O)CC[C@@H]23)C[C@@H](O)C[C@@H]1O [Compound 37, 1(S),3(R)-Dihydroxy-20(R)-(7-hydroxy-7-methyl-1-octyl)-9,10-secopregna-5(Z),7(E),10(19)-triene]
- concentration effective in inhibiting proliferation [8]: the same low concentrations as 1,25(OH)2 D3
- concentration needed to induce cell differentiation [10]: the same low concentrations as 1,25(OH)2 D3

- in vivo potency on calcium metabolism [9]: lower in vivo potency
Compound: C=C1/C(=C\C=C2/CCC[C@]3(C)[C@@H]([C@H](C)/C=C/CCCCC(C)(C)O)CC[C@@H]23)C[C@@H](O)C[C@@H]1O [Compound 38]
- concentration effective in inhibiting proliferation [8]: the same low concentrations as 1,25(OH)2 D3
- concentration needed to induce cell differentiation [10]: the same low concentrations as 1,25(OH)2 D3

- in vivo potency on calcium metabolism [9]: lower in vivo potency
Compound: C=C1/C(=C\C=C2/CCC[C@]3(C)[C@@H]([C@H](C)/C=C/CCCC(C)(C)O)CC[C@@H]23)C[C@@H](O)C[C@@H]1O [Compound 54]
- concentration effective in inhibiting proliferation [8]: the same low concentrations as 1,25(OH)2 D3
- concentration needed to induce cell differentiation [10]: the same low concentrations as 1,25(OH)2 D3

Compound: C=C1/C(=C\C=C2/CCC[C@]3(C)[C@@H]([C@H](C)/C=C/[C@@H](O)C4CC4)CC[C@@H]23)C[C@@H](O)C[C@@H]1O [MC 903]
- binding to the intestinal vitamin D receptor [11]: binds equally well as 1,25(OH)2 D3
- activity on calcium metabolism in vivo [12]: only moderate activity
- inhibition of cell proliferation (cell proliferation [13]): inhibitor of cell proliferation
- induction of cell differentiation (cell differentiation [14]): potent inducer of cell differentiation
